# Data from patent US20230312564A1, “AROMATIC RING-LACTAM COMPOUND, PREPARATION METHOD THEREFOR AND USE THEREOF” (SHANGHAI RINGENE BIOPHARMA CO., LTD., priority 2020, published 2023).
# What was measured:
# [1] = tested on: T1, ERK1/2 kinase; assay: ERK1/2 kinase (Carna) inhibitory activity, Caliper mobility shift; format: biochemical
# T1 construct: fused on or other part: Carna's ERK products carry a GST tag by vendor knowledge
# Procedure, shortened: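 Compounds tested from 10 μM top concentration, 3-fold dilutions to 10 points, in duplicate, in 1× kinase buffer; Caliper mobility-shift readout.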
# [2] = Liver microsomal metabolic stability, rat; format: in vitro ADME; conditions: liver microsomes, 0.5 mg/mL microsomes, 1 μM compound, NADPH, read-out: Liver microsomal stability T1/2
# Description: The reaction was stopped with tinidazole-containing acetonitrile at 0 min, 5 min, 10 min and 30 min, respectively. After vortexing for 10 min and centrifuging at 15,000 rmp for 10 min, 50 μL of the supernatant was injected into a 96-well plate. The metabolic stability of the compound was calculated by determining the relative reduction of the drug, calculated as half-life T1/2.
# [3] = target: CYP2C8 (Homo sapiens, UniProt P11712); assay: Direct inhibition test (DI test) in human liver microsomes, CYP2C8; format: in vitro ADME
# [4] = In-vivo pharmacokinetic parameters in SD rats
# Description: Six male SPF grade SD rats or Balb-c mice (Shanghai Sipple-Bikai Laboratory Animal) were divided into two groups, and the tested compounds were prepared into appropriate solutions or suspensions; one group was administered intravenously (with a dose of 1 mg/kg), and the other group was administered orally (with a dose of 5 mg/kg). Blood samples were collected by jugular vein puncture, and each sample was collected with a volume of about 0.2 mL/time point, and heparin sodium was used for anticoagulation. The time points of blood collection were listed below: 5, 15 and 30 min […], 1, 2, 4, 6, 8 and 24 h after administration; the collected blood samples were placed on ice and centrifuged to separate plasma (centrifugation conditions: 8,000 rpm, 6 min, 2 to 8° C.), and the collected plasma was stored at −80° C. before analysis. Plasma samples were analyzed by LC-MS/MS.
# The pharmacokinetic parameters such as AUC0-t, AUC0-∞, MRT0-∞, Cmax, Tmax, T1/2 and Vd of the tested compounds and their mean values and standard deviations were calculated by the pharmacokinetic calculation software WinNonlin5.2 non-compartmental model according to the plasma concentration data. In addition, the bioavailability (F) was calculated by the following formula.
# For samples with concentrations below the lower limit of quantitation, while pharmacokinetic parameter calculations were performed, samples sampled before Cmax was reached should be calculated as a zero value and samples sampled after Cmax was reached should be calculated as below limit of quantitation (BLQ).
# [5] = tested on: Colo-205 transplanted tumor; assay: Growth inhibition of nude mice Colo-205 transplanted tumor; format: in vivo
# [6] = male, rat, plasma, 1 mg/kg, IV, 1 mpk
# [7] = male, rat, plasma, 5 mg/kg, PO, 5 mpk
# Sequence of CYP2C8 (P11712 whole entry): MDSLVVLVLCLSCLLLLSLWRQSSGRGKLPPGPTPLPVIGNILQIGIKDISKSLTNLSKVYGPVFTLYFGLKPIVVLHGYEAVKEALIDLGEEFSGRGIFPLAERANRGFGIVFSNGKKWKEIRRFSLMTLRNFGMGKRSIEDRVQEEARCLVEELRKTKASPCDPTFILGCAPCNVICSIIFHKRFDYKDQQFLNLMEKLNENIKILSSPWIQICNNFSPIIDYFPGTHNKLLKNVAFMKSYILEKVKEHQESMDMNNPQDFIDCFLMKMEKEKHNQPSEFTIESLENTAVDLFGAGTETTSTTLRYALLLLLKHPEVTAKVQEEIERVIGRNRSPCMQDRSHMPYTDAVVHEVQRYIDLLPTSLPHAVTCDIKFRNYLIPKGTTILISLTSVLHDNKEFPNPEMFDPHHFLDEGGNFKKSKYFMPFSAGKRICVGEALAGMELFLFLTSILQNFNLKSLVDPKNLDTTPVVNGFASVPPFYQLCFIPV
structure (smiles),measurement,setting,value
COc1cc(F)cc([C@@H](CO)NC(=O)[C@@H](C)N2Cc3ccc(-c4nc(NC5CCOCC5)ncc4F)c(F)c3C2=O)c1 [Embodiment 40],enzyme inhibitory activity (in words),[1],extremely strong enzyme inhibitory activity
same,IC50,"[1]; numeric values, read-out: ERK½ IC50",< 0.001 µM
same,half-life at 1 μM,[2],14 min
same,IC50 at 20 min,[3],> 10 µM
same,F,[4]; PO 5 mpk vs IV 1 mpk,29%
same,AUC(0-inf),[4]; [6],0.304 µM·h
same,AUC(0-t),[4]; [6],0.303 µM·h
same,MRT inf,[4]; [6],12 min
same,clearance,[4]; [6],94 mL/min/kg
same,half-life,[4]; [6],18 min
same,Vd,"[4]; male, rat, plasma, 1 mg/kg, IV, 1 mpk, read-out: Vss",0.9 L/kg
same,AUC(0-inf),[4]; [7],0.436 µM·h
same,AUC(0-t),[4]; [7],0.432 µM·h
same,Cmax,[4]; [7],476 nM
same,Tmax,[4]; [7],18 min
same,half-life,[4]; [7],66 min
same,T/C,"[5]; 25 mg/kg, bidx21, po",7.2%
same,Initial weight (D0),"[5]; 25 mg/kg, bidx21, po",19.5 g
same,Terminal weight (D21),"[5]; 25 mg/kg, bidx21, po",21.0 g
same,Initial tumor volume,"[5]; 25 mg/kg, bidx21, po",97 ± 26 mm^3
same,Terminal tumor volume,"[5]; 25 mg/kg, bidx21, po",67 ± 14 mm^3
same,T/C,"[5]; 50 mg/kg, qdx21, po",23.2%
same,Initial weight (D0),"[5]; 50 mg/kg, qdx21, po",21.4 g
same,Terminal weight (D21),"[5]; 50 mg/kg, qdx21, po",23.2 g
same,Initial tumor volume,"[5]; 50 mg/kg, qdx21, po",98 ± 22 mm^3
same,Terminal tumor volume,"[5]; 50 mg/kg, qdx21, po",238 ± 130 mm^3
same,effect on the tumor weight (in words),[5]; dose of 50 mg/kg or 25 mg/kg,no significant effect on the tumor weight
same,tumor growth of Colo-205 transplanted tumor nude mice (in words),[5]; dose of 50 mg/kg or 25 mg/kg,significantly inhibited the tumor growth
